Test results published in US20080146516A1, “Novel C-Glycosides, uses thereof” (L 'OREAL SA, priority 2004, published 2008).

Tested on: normal human dermal fibroblasts
Test: Synthesis of glycosaminoglycans (hyaluronic acid): incorporation of radioactivity into the matrix neosynthesized by fibroblast cultures
Assay type: cell-based
Settings: 72 hours incubation; for cpm (radioactivity incorporated into matrix GAGs): 35S-sulphate during final 24 hours; for %/control: relative to the control (100)
Procedure: The study was carried out by measuring the incorporation of radioactive glucosamine into the matrix neosynthesized by normal human dermal fibroblast cultures. The incorporation of radioactive glucosamine indicates specific neosynthesis of glycosaminoglycans via incorporation of the sulphated form of this glucosamine.
Normal human dermal fibroblasts were seeded in the conventional culture medium and were then preincubated for 24 hours. The culture medium was then replaced with the test compounds at concentrations of 0.3, 1 and 3 mM; or culture medium (control); or TGFβ at 10 ng/ml (quality control). The cells were incubated for 72 hours with the addition of ^35S-sulphate during the final 24 hours of culture. The GAGs in the matrix were extracted with a chaotropic buffer and then purified by ion exchange chromatography (adsorption of the anionic molecules onto Q-sepharose beads under high stringency conditions, followed by desorption of the weakly and moderately anionic molecules with urea). The radioactivity incorporated into the very […] molecules that remained on the support were counted by liquid scintillation.
The results are expressed as percentage relative to the control: […]

| Compound | cpm (radioactivity incorporated into matrix GAGs) (10 ng/ml) [cpm] | %/control (10 ng/ml) [%] | cpm (radioactivity incorporated into matrix GAGs) (0.3 mM) [cpm] | %/control (0.3 mM) [%] | cpm (radioactivity incorporated into matrix GAGs) (1 mM) [cpm] | %/control (1 mM) [%] | cpm (radioactivity incorporated into matrix GAGs) (3 mM) [cpm] | %/control (3 mM) [%] |
| --- | --- | --- | --- | --- | --- | --- | --- | --- |
| TGFβ [reference compound] | 9625 | 192 | – | – | – | – | – | – |
| C[C@H](O)C[C@@H]1OC[C@@H](O)[C@H](O)[C@H]1O [Example 1, C-β-D-xylopyranoside-2-(S)-hydroxypropane] | – | – | 16276 | 325 | 30943 | 618 | 40770 | 814 |
